# Data published in patent publication US20180140637A1, “EPIDERMAL NEURAL CREST STEM CELLS AS A SOURCE OF SCHWANN CELLS” (priority 2015, published 2018).
# How the values were obtained:
# hEPI-NCSC = test: Differentiation of hEPI-NCSC into Schwann cells; type: cell-based, human
# Description: hEPI-NCSC were seeded at 2,500-5,000 cells per CELLstart™-coated 35-mm culture plate and cultured at 36.8° C., 5% CO2 and 5% O2. At differentiation Day minus 3 (D-3), cells were placed in XP medium, which is NeuroCult XF medium (Stem Cell Technologies, Grenoble, France Cat# 05761) supplemented with 10 ng/ml rhFGF2 (R&D Systems, Abingdon, UK Cat# 233-FB), 20 ng/ml rhEGF (R&D Systems Cat# 236-EG), 1× ITS+3 (Sigma, Poole, UK Cat# 1-2771), 1% (v/v) FBS (HyClone, Thermo Fisher, Cramlington, UK Cat# SH30070.02), 1× GlutaMAX (Invitrogen, Cat# 35050-038), 1× Penicillin/Streptomycin (Sigma Cat# P0781) and 2.5 μg/ml Amphotericin B (Sigma Cat# A2942).
# The cells in XP medium were treated with 500 ng/ml recombinant human sonic hedgehog (C2411) N-terminus (rhSHH) and 500 nM CHIR99021 for two days. At differentiation Day −1, the cells were subcultured. Cells were detached with TrypLE Select, centrifuged, and plated in XP medium at a density of 30,000 cells per 35 mm culture plate and 1,000 cells per poly-D-lysine and laminin-coated 13-mm diameter glass coverslip. The next day (differentiation Day 0), cells were cultured in Alpha-modified MEM in the presence of 10% FBS and 1 mM β-mercaptoethanol (βME) for 24 hours, which was followed by treatment with 35 ng/ml all-trans-retinoic acid according to the method of Dezawa et al (2001). At differentiation Day 3, the FBS concentration was reduced to 1%. Starting at differentiation Day 0, 10 μM SB431542 was added to the culture medium. Retinoic acid and SB431542 remained in the culture medium throughout the culture period. At Day 3, 10 ng/ml rhFGF2, 5 ng/ml recombinant human PDGF-BB (rhPDGF-BB), 5 μM forskolin, 200 ng/ml recombinant human neuregulin-1 (rhNRG) were added to the culture medium. The culture medium was exchanged every 48 hours.
# At Day 0 of differentiation, cells were treated for 24 hours with β-mercaptoethanol, and all-trans-retinoic acid was added on differentiation Day 1 according to the method of Dezawa et al (2001). Neither the three-day treatment with retinoic acid, nor five days of exposure to retinoic acid were sufficient for differentiating hEPI-NCSC into Schwann cells as judged by cell morphology and marker expression. […] At Day 0, SB431542, an inhibitor of transforming growth factor-beta 1 (TGFβ1) activin receptor-like kinases (ALKs), was also added to the culture medium (FIG. 1). […] On Day 3, FGF2, PDGF-BB, forskolin, and neuregulin-1 were added.
# [1] = test system: endogenous Schwann cells (non-neuronal cells) of dorsal root ganglia (DRG) explants; test: Removal of non-neuronal cells from DRG explants; type: cell-based, rodent; conditions: for removal of endogenous Schwann cells from DRG explants: rodent DRG explants, camptothecin 20 μM three times for 48 hours each, data not shown
# Description: (§1) Mice ([C57BL/6-TgN(ACTbEGFP)]Osb]; ‘green mice’) (Okabe et al, 1997) and rats were handled in accordance to protocols approved by the Animal Care Committee of Newcastle University (project licence 60/3876). Whole mount DRG explants from E15.5 Wistar rat embryos were dissected as described by Päiväläinen et al. (2008) and Liu et al. (2011). Dissociated DRG cultures from adult ‘green’ mice were prepared according to Malin et al (2007) and Johnson et al (2001). To remove non-neuronal cells, DRG explants were treated with camptothecin (20 μM) three times for 48 hours each, on Days 2-5, 6-8, and 13-15.
# (§2) Co-cultures of hEPI-NCSC derived Schwann cells and rodent dorsal root ganglia (DRG) explants were prepared by first treating the DRG explants with camptothecin to eliminate non-neuronal cells. […] Neuronal toxicity of camptothecin has been documented previously (Bhanu and Kondapi, 2010).
# Anti-human nuclear antibody immunofluorescence confirmed that all P-zero immunoreactive Schwann cells were of human origin (FIG. 7A-7C; pale blue fluorescence in original).
# SAPK2/p38 = SAPK2/p38 (Homo sapiens, UniProt Q16539); conditions: inhibitor of CK1 and ALK5; cited from earlier work
# [2] = test system: large diameter sensory neurons; test: Neuronal toxicity in DRG explants; type: cell-based, rodent
# Description: as §1, §2
# Chain of SAPK2/p38 (Q16539 whole entry): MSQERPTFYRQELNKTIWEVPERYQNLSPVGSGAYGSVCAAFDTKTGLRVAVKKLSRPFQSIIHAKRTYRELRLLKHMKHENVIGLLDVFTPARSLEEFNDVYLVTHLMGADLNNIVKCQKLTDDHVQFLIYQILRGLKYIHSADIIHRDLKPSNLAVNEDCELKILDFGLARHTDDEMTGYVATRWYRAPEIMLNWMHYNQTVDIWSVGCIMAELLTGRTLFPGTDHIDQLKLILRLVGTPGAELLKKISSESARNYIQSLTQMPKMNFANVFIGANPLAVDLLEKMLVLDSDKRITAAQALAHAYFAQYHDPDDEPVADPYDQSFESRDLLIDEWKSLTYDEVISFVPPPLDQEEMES
compound,measurement,setting,value
"CC1=C(/C=C/C(C)=C/C=C/C(C)=C/C(=O)O)C(C)(C)CCC1 [Retinoic acid, all-trans-retinoic acid]",deleterious effects to the cells,hEPI-NCSC; 35 ng/ml in the differentiation medium throughout the culture period,without any detectable deleterious effects to the cells
same,"Schwann cell differentiation, judged by cell morphology and marker expression",hEPI-NCSC; retinoic acid treatment for 3 days,not conducive to highly efficient Schwann cell differentiation
same,"Schwann cell differentiation, judged by cell morphology and marker expression",hEPI-NCSC; retinoic acid treatment for 5 days (data not shown),not conducive to highly efficient Schwann cell differentiation
Nc1ccn([C@@H]2O[C@H](CO)[C@@H](O)[C@@H]2O)c(=O)n1 [cytosine arabinoside],removal of endogenous Schwann cells from DRG explants,[1],did not
"NC(=O)c1ccc(-c2nc(-c3ccc4c(c3)OCCO4)c(-c3ccccn3)[nH]2)cc1 [D 4476, 4-[4-(2,3-Dihydro-1,4-benzodioxin-6-yl)-5-(2-pyridinyl)-1H-imidazol-2-yl]benzamide]",selectivity over SAPK2/p38,SAPK2/p38,greater than 20 fold
"NC(=O)c1ccc(-c2nc(-c3ccc4c(c3)OCO4)c(-c3ccccn3)[nH]2)cc1 [SB 431542, 4-[4-(1,3-benzodioxol-5-yl)-5-(2-pyridinyl)-1H-imidazol-2-yl]benzamide]",effect on differentiation into Schwann cells,hEPI-NCSC; 10 μM throughout the differentiation period,facilitated differentiation
CC[C@@]1(O)C(=O)OCc2c1cc1n(c2=O)Cc2cc3ccccc3nc2-1 [camptothecin],toxicity to sensory neurons,[2],selectively toxic to large diameter sensory neurons
same,removal of endogenous Schwann cells from DRG explants,[1],efficiently removed endogenous Schwann cells
same,non-neuronal cells in treated DRG explants,"[1]; whole DRG explants from E15.5 rat embryos, camptothecin 20 μM",clear of non-neuronal cells
